Data published in patent publication US20020137929A1, “1 - (3-heterocyclylphenyl) isothiourea, -isourea, -guanidine and -amidine herbicidal agents” (Intellectual Property Department, BASF Aktiengesellschaft, priority 1998, published 2002).

Key:
[1] = tested on: IPOHE (Morningglory, Ivyleaf); test: Preemergence herbicidal evaluation; format: in vivo, Ipomoea hederacea; conditions: rated 4-5 weeks after treatment
Procedure, shortened: (§1)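 Steps: mix seeds into potting soil; plant atop ~1 inch soil; spray compound in aqueous acetone (~0.0156-0.500 kg/ha equivalent); maintain in greenhouse with watering; rate visually 0-9 versus control at 4-5 weeks.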

[2] = tested on: SAGPY (Arrowhead (Pygmaea)); test: Postemergence weed control under flooded paddy conditions; format: in vivo, Sagittaria pygmaea; conditions: postemergence weeds, 3-4 weeks after treatment
Procedure, shortened: (§2)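 Flood-water application, about 0.0313–0.500 kg/ha a.i. in aqueous/acetone 50/50 v/v; water depth 1.5–3 cm throughout. Weeds 3–5 cm, rice 1.5–2.5 leaf. Greenhouse; 0–9 visual rating vs control at 3–4 wk.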

[3] = tested on: TRZAWR (Wheat, Winter, cv Riband); test: Preemergence herbicidal evaluation; format: in vivo, Triticum aestivum; conditions: rated 4-5 weeks after treatment
Procedure, shortened: as §1

[4] = tested on: SETVI (Foxtail, Green); test: Postemergence herbicidal evaluation; format: in vivo, Setaria viridis
Procedure, shortened: (§3)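 Seedlings grown about two weeks were sprayed at 40 psi with compound dispersed in 50/50 acetone/water plus 0.5% TWEEN 20, at about 0.0156 to 0.500 kg/ha. Plants were kept in the greenhouse and scored 4–5 weeks later on a 0–9 visual scale against untreated controls.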

[5] = tested on: ZEAMX (Corn, Field); test: Preemergence herbicidal evaluation; format: in vivo, Zea mays; conditions: rated 4-5 weeks after treatment
Procedure, shortened: as §1

[6] = tested on: CYPIR (Rice Flatsedge); test: Preemergence weed control under flooded paddy conditions; format: in vivo, Cyperus iria; conditions: rated 3-4 weeks after treatment
Procedure, shortened: (§4)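 First, seeds or propagules go into the top 0.5 cm of silt loam; next, water is held 1.5 to 3 cm over the soil; then compound (50/50 acetone/water) is pipetted into it at about 0.0313 to 0.500 kg/ha; finally plants are rated visually 0-9 after three to four weeks.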

[7] = tested on: MOOVA (Monochoria); test: as above; format: in vivo, Monochoria vaginalis; conditions: rated 3-4 weeks after treatment
Procedure, shortened: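 Silt loam, seeds in top 0.5 cm; flood held 1.5-3 cm; test cpd as acetone/water 50/50 into flood water, ~0.0313-0.500 kg/ha a.i.; greenhouse 3-4 wk; visual 0-9 score vs control.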

[8] = tested on: ECHCG (Barnyardgrass); test: Postemergence herbicidal evaluation; format: in vivo, Echinochloa crus-galli
Procedure, shortened: as §3

[9] = tested on: ECHORC (Watergrass (Calif.)); test: Preemergence weed control under flooded paddy conditions; format: in vivo, Echinochloa oryzoides; conditions: rated 3-4 weeks after treatment
Procedure, shortened: as §4

[10] = tested on: ABUTH (Velvetleaf); test: Postemergence herbicidal evaluation; format: in vivo, Abutilon theophrasti
Procedure, shortened: as §3

[11] = tested on: ORYSAT (Rice, Tebonnet); test: Postemergence herbicidal evaluation; format: in vivo, Oryza sativa, (L.) Tebonnet
Procedure, shortened: as §3

[12] = tested on: GALAP (Galium); test: Postemergence herbicidal evaluation; format: in vivo, Galium aparine
Procedure, shortened: as §3

[13] = tested on: CYPIR (Rice Flatsedge); test: Postemergence weed control under flooded paddy conditions; format: in vivo, Cyperus iria; conditions: postemergence weeds, 3-4 weeks after treatment
Procedure, shortened: as §2

[14] = tested on: CYPSE (Flatsedge); test: as above; format: in vivo, Cyperus serotinus; conditions: postemergence weeds, 3-4 weeks after treatment
Procedure, shortened: as §2

## Cn1c(C(F)(F)F)cc(=O)n(-c2cc(N=C3SCC(=O)N3CCC(=O)O)c(Cl)cc2F)c1=O [Compound 30, 2-{{2-Chloro-5-[3,6-dihydro-3-methyl-2,6-dioxo-4-(trifluoromethyl)-1(2H)-pyrimidinyl]-4-fluorophenyl}imino}-4-oxo-3-thiazolidinepropionic acid]
[1]; rate 0.0313 kg/ha
  Preemergence herbicidal rating IPOHE: 0.0
[1]; rate 0.0625 kg/ha
  Preemergence herbicidal rating IPOHE: 0.0
[1]; rate 0.1250 kg/ha
  Preemergence herbicidal rating IPOHE: 1.0
[1]; rate 0.2500 kg/ha
  Preemergence herbicidal rating IPOHE: 2.0
[2]; rate 0.1250 kg/ha
  Herbicidal rating SAGPY: 0.0
[2]; rate 0.2500 kg/ha
  Herbicidal rating SAGPY: 2.0
[3]; rate 0.0313 kg/ha
  Preemergence herbicidal rating TRZAWR: 0.0
[3]; rate 0.0625 kg/ha
  Preemergence herbicidal rating TRZAWR: 1.0
[3]; rate 0.1250 kg/ha
  Preemergence herbicidal rating TRZAWR: 2.0
[3]; rate 0.2500 kg/ha
  Preemergence herbicidal rating TRZAWR: 6.0
[4]; Rate 0.0158 kg/ha
  Postemergence herbicidal rating SETVI: 0.0
[4]; Rate 0.0315 kg/ha
  Postemergence herbicidal rating SETVI: 0.0
[4]; Rate 0.0630 kg/ha
  Postemergence herbicidal rating SETVI: 0.0
[5]; rate 0.0313 kg/ha
  Preemergence herbicidal rating ZEAMX: 1.0
[5]; rate 0.0625 kg/ha
  Preemergence herbicidal rating ZEAMX: 3.0
[5]; rate 0.1250 kg/ha
  Preemergence herbicidal rating ZEAMX: 3.0
[5]; rate 0.2500 kg/ha
  Preemergence herbicidal rating ZEAMX: 6.0
[6]; 0.1250 kg/ha
  Herbicidal rating CYPIR: 2.0
[6]; 0.2500 kg/ha
  Herbicidal rating CYPIR: 4.5
[7]; 0.1250 kg/ha
  Herbicidal rating MOOVA: 1.5
[7]; 0.2500 kg/ha
  Herbicidal rating MOOVA: 4.5
[8]; Rate 0.0158 kg/ha
  Postemergence herbicidal rating ECHCG: 0.0
[8]; Rate 0.0315 kg/ha
  Postemergence herbicidal rating ECHCG: 0.0
[8]; Rate 0.0630 kg/ha
  Postemergence herbicidal rating ECHCG: 0.0
[9]; 0.1250 kg/ha
  Herbicidal rating ECHORC: 0.0
[9]; 0.2500 kg/ha
  Herbicidal rating ECHORC: 0.0
[10]; Rate 0.0158 kg/ha
  Postemergence herbicidal rating ABUTH: 3.0
[10]; Rate 0.0315 kg/ha
  Postemergence herbicidal rating ABUTH: 9.0
[10]; Rate 0.0630 kg/ha
  Postemergence herbicidal rating ABUTH: 9.0
[11]; Rate 0.0158 kg/ha
  Postemergence herbicidal rating ORYSAT: 2.0
[11]; Rate 0.0315 kg/ha
  Postemergence herbicidal rating ORYSAT: 2.5
[11]; Rate 0.0630 kg/ha
  Postemergence herbicidal rating ORYSAT: 3.5
[12]; Rate 0.0158 kg/ha
  Postemergence herbicidal rating GALAP: 0.0
[12]; Rate 0.0315 kg/ha
  Postemergence herbicidal rating GALAP: 0.0
[12]; Rate 0.0630 kg/ha
  Postemergence herbicidal rating GALAP: 0.0
[13]; rate 0.1250 kg/ha
  Herbicidal rating CYPIR: 2.0
[13]; rate 0.2500 kg/ha
  Herbicidal rating CYPIR: 4.5
[14]; rate 0.1250 kg/ha
  Herbicidal rating CYPSE: 0.0
[14]; rate 0.2500 kg/ha
  Herbicidal rating CYPSE: 0.0

## O=C(O)CC1SC(=Nc2cc(N3C(=O)C4=C(CCCC4)C3=O)c(F)cc2Cl)N(CC(=O)O)C1=O (centres unmarked) [Compound 48, 2-{[2-Chloro-5-(1-cyclohexene-1,2-dicarboximido)-4-fluorophenyl]imino}-4-oxo-3,5-thiazolidinediacetic acid]
[1]; rate 0.0156 kg/ha
  Preemergence herbicidal rating IPOHE: 0.0
[1]; rate 0.0313 kg/ha
  Preemergence herbicidal rating IPOHE: 0.0
[1]; rate 0.0625 kg/ha
  Preemergence herbicidal rating IPOHE: 0.0
[1]; rate 0.2500 kg/ha
  Preemergence herbicidal rating IPOHE: 0.0
[2]; rate 0.1250 kg/ha
  Herbicidal rating SAGPY: 3.0
[2]; rate 0.2500 kg/ha
  Herbicidal rating SAGPY: 6.0
[3]; rate 0.0156 kg/ha
  Preemergence herbicidal rating TRZAWR: 0.0
[3]; rate 0.0313 kg/ha
  Preemergence herbicidal rating TRZAWR: 0.0
[3]; rate 0.0625 kg/ha
  Preemergence herbicidal rating TRZAWR: 0.0
[3]; rate 0.1250 kg/ha
  Preemergence herbicidal rating TRZAWR: 0.0
[3]; rate 0.2500 kg/ha
  Preemergence herbicidal rating TRZAWR: 2.0
[4]; Rate 0.0156 kg/ha
  Postemergence herbicidal rating SETVI: 0.0
[4]; Rate 0.0313 kg/ha
  Postemergence herbicidal rating SETVI: 0.0
[4]; Rate 0.0625 kg/ha
  Postemergence herbicidal rating SETVI: 2.0
[5]; rate 0.0156 kg/ha
  Preemergence herbicidal rating ZEAMX: 0.0
[5]; rate 0.0313 kg/ha
  Preemergence herbicidal rating ZEAMX: 0.0
[5]; rate 0.0625 kg/ha
  Preemergence herbicidal rating ZEAMX: 0.0
[5]; rate 0.1250 kg/ha
  Preemergence herbicidal rating ZEAMX: 0.0
[5]; rate 0.2500 kg/ha
  Preemergence herbicidal rating ZEAMX: 2.0
[6]; 0.1250 kg/ha
  Herbicidal rating CYPIR: 2.0
[6]; 0.2500 kg/ha
  Herbicidal rating CYPIR: 5.0
[7]; 0.1250 kg/ha
  Herbicidal rating MOOVA: 3.0
[7]; 0.2500 kg/ha
  Herbicidal rating MOOVA: 6.0
[8]; Rate 0.0156 kg/ha
  Postemergence herbicidal rating ECHCG: 0.0
[8]; Rate 0.0313 kg/ha
  Postemergence herbicidal rating ECHCG: 2.0
[8]; Rate 0.0625 kg/ha
  Postemergence herbicidal rating ECHCG: 2.0
[9]; 0.1250 kg/ha
  Herbicidal rating ECHORC: 3.0
[9]; 0.2500 kg/ha
  Herbicidal rating ECHORC: 6.0
[10]; Rate 0.0156 kg/ha
  Postemergence herbicidal rating ABUTH: 9.0
[10]; Rate 0.0313 kg/ha
  Postemergence herbicidal rating ABUTH: 9.0
[10]; Rate 0.0625 kg/ha
  Postemergence herbicidal rating ABUTH: 9.0
[11]; Rate 0.0156 kg/ha
  Postemergence herbicidal rating ORYSAT: 0.5
[11]; Rate 0.0313 kg/ha
  Postemergence herbicidal rating ORYSAT: 0.5
[11]; Rate 0.0625 kg/ha
  Postemergence herbicidal rating ORYSAT: 2.0
[12]; Rate 0.0156 kg/ha
  Postemergence herbicidal rating GALAP: 0.0
[12]; Rate 0.0313 kg/ha
  Postemergence herbicidal rating GALAP: 0.0
[12]; Rate 0.0625 kg/ha
  Postemergence herbicidal rating GALAP: 0.0
[13]; rate 0.1250 kg/ha
  Herbicidal rating CYPIR: 2.0
[13]; rate 0.2500 kg/ha
  Herbicidal rating CYPIR: 5.0
[14]; rate 0.1250 kg/ha
  Herbicidal rating CYPSE: 0.0
[14]; rate 0.2500 kg/ha
  Herbicidal rating CYPSE: 0.0
